Our source for the IC50 values is patent publication US8309341B2, “2-mercaptocyclopentanecarboxylic acid compounds, a process for their preparation and pharmaceutical compositions containing them” (Les Laboratories Server, priority 2009, dated 2012).

Where a name gives a salt, the structure may show the parent alone.

In this assay the target is T1, TAFIa (purified human TAFI activated by thrombin-thrombomodulin complex) (Homo sapiens, UniProt Q96IY4).
T1 construct: purchased American Diagnostica TAFI Activity Kit (catalogue number not given)
T1 sequence (Q96IY4 115-423): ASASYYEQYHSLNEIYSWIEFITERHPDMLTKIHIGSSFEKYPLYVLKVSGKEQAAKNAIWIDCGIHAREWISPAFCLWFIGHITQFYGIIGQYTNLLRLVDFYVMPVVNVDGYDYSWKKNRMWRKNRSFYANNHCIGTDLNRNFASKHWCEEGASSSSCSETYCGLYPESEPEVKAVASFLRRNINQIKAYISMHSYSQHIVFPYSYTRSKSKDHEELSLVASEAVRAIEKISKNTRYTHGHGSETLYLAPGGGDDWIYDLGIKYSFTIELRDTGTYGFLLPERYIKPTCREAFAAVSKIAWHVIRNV
Briefly: Inhibition of TAFIa (chromogenic substrate, TAFI Activity Kit). The note with it: 3.2 nM TAFIa; compound incubated 5 minutes at 20° C., chromogenic substrate 30 minutes at 37° C., OD at 490 nm; read-out: IC50 (concentration which inhibits 50% of the enzymatic activity of TAFIa). In kind it is biochemical. The procedure: Purified human TAFI (25 ng) is activated by adding thrombin-thrombomodulin complex in the presence of calcium chloride. After incubating for 20 minutes at 20° C., the reaction is stopped by adding the irreversible thrombin inhibitor PPACK (TAFI Activity Kit, American Diagnostica).
The compound under test is added to the (3.2 nM) TAFIa solution and incubated for 5 minutes at 20° C. A chromogenic TAFIa substrate is added and then incubated for 30 minutes at 37° C. The enzymatic reaction is stopped by adding sulphuric acid (TAFI Activity Kit, American Diagnostica). The optical density (OD) of the solution is measured at 490 nm with the aid of a spectrophotometer (Spectramax, Molecular Devices). The OD value of a well containing the reagents without the TAFI is subtracted from each of the OD values measured. The percentage inhibition of TAFIa at a given concentration of the compound under test is determined using the following formula: % inhibition=100−[(OD of compound×100)/OD of carrier]
The concentration of compound of the invention which inhibits 50% of the enzymatic activity of TAFIa (IC50) is calculated from the inhibition percentages of the OD values measured for increasing concentrations of the compound under test using non-linear regression according to a sigmoidal four-parameter equation (effect-dose).

In the case of `CC(=O)S[C@H]1CCC[C@@]1(CCCN)C(=O)O` [Example 2, (1R,2S)-2-Acetylthio-1-(3-aminopropyl)-cyclopentanecarboxylic acid hydrochloride], the IC50 turned out to be 22 ± 6 nM.
As for `NCCCCC1(C(=O)O)CCCC1S` (single isomer, unassigned) [Example 8, 1-(4-Aminobutyl)-2-mercaptocyclopentanecarboxylic acid trifluoroacetate (racemic cis diastereoisomer)], the IC50 came to 178 ± 11 nM.
In the case of `NCCCC1(C(=O)O)CCCC1S` (single isomer, unassigned) [Example 6, 1-(3-Aminopropyl)-2-mercaptocyclopentanecarboxylic acid trifluoroacetate (racemic cis diastereoisomer)] it was 14 ± 2 nM; in that of `NCCCC[C@]1(C(=O)O)CCC[C@H]1S` (single isomer, unassigned; enantiomer 2) [Example 10, 1-(4-Aminobutyl)-2-mercaptocyclopentanecarboxylic acid trifluoroacetate (cis diastereoisomer, enantiomer 2)], 81 ± 16 nM; in that of `NCCC[C@@]1(C(=O)O)CCC[C@@H]1S` [Example 3, (1R,2S)-1-(3-Aminopropyl)-2-mercaptocyclopentanecarboxylic acid hydrochloride], 7.4 ± 1.1 nM.
To `NCCC[C@@]1(C(=O)O)CCC[C@@H]1SS[C@H]1CCC[C@@]1(CCCN)C(=O)O` [Example 20, (1R,2S,1′R,2′S)-2,2′-Disulphanediylbis[1-(3-aminopropyl)cyclopentane-carboxylic acid]dihydrochloride] belongs 186 ± 26 nM; to `NCCC[C@@]1(C(=O)O)CCC[C@@H]1S` [Example 1, (1R,2S)-1-(3-Aminopropyl)-2-mercaptocyclopentanecarboxylic acid trifluoroacetate], 6.7 ± 0.6 nM.
On to `O=C(O)[C@@]1(CC2CCNCC2)CCC[C@H]1S` (single isomer, unassigned) [Example 13, 2-Mercapto-1-(piperidin-4-ylmethyl)-cyclopentanecarboxylic acid trifluoroacetate (racemic cis diastereoisomer)], for which the IC50 stood at 184 ± 22 nM.
